In ChEMBL document CHEMBL1151043, “The synthesis and antibacterial activity of 2-para-quarternary ammoniomethylphenyl-carbapenems” (1993):

Assays:
Staphylococcus aureus = assay: In vitro antibacterial activity against Staphylococcus aureus relative to thienamycin; type: functional
Klebsiella = assay: In vitro antibacterial activity against Klebsiella relative to thienamycin; type: functional
Enterococcus = assay: In vitro antibacterial activity against Enterococcus relative to thienamycin; type: functional
Escherichia coli = assay: In vitro antibacterial activity against Escherichia coli relative to thienamycin; type: functional
Pseudomonas = assay: In vitro antibacterial activity against Pseudomonas relative to thienamycin; type: functional
Serratia = assay: In vitro antibacterial activity against Serratia relative to thienamycin; type: functional
[1] = target: T1, Dipeptidase 1 (Sus scrofa) (UniProt P22412); assay: Susceptibility of compound towards porcine Dehydropeptidase-1 relative to imipenem as […] was calculated
T1 sequence (whole entry): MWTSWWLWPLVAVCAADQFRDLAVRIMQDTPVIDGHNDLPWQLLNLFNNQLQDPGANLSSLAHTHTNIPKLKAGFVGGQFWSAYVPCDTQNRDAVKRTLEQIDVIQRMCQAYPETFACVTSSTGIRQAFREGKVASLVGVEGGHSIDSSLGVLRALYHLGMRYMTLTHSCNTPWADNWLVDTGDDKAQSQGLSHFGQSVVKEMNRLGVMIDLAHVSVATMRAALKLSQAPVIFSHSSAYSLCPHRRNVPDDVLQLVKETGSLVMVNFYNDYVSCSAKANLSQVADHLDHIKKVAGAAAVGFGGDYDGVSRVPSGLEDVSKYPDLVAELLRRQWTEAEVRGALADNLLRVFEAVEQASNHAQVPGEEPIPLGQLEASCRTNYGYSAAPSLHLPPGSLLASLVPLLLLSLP

Enterobacter = assay: In vitro antibacterial activity against Enterobacter relative to thienamycin; type: functional
Proteus = assay: In vitro antibacterial activity against Proteus relative to thienamycin; type: functional, Proteus sp.

Susceptibility [1]	SMILES	Relative potency (Staphylococcus aureus)	Relative potency (Klebsiella)	Relative potency (Enterococcus)	Relative potency (Escherichia coli)	Relative potency (Pseudomonas)	Relative potency (Serratia)	Relative potency (Enterobacter)	Relative potency (Proteus)
0.09	C[C@@H](O)[C@H]1C(=O)N2C(C(=O)[O-])=C(c3ccc(C[n+]4ccc(N5CCSCC5)cc4)cc3)C[C@H]12	1.2	1.1	4.9	5.3	0.04	4.9	4.6	7
0.03	C[C@@H](O)[C@H]1C(=O)N2C(C(=O)[O-])=C(c3ccc(C[N+]4(C)CCCCC4)cc3)C[C@H]12	0.8	1.9	14.9	5.3	0.03	11.3	8	9.8
0.02	C[C@@H](O)[C@H]1C(=O)N2C(C(=O)[O-])=C(c3ccc(C[N+]4(C)CCOCC4)cc3)C[C@H]12	0.8	2.3	10.6	2	0.02	7.5	5.7	6.1
0.11	C[C@@H](O)[C@H]1C(=O)N2C(C(=O)[O-])=C(c3ccc(C[n+]4ccccc4N)cc3)C[C@H]12	1.3	2.6	21.1	2.8	0.08	11.3	6.1	8
0.04	C[C@@H](O)[C@H]1C(=O)N2C(C(=O)O)=C(c3ccc(CN4CCCC4)cc3)C[C@H]12	0.6	2.1	12.1	2.8	0.07	9.8	5.7	8
0.33	C[C@@H](O)[C@H]1C(=O)N2C(C(=O)[O-])=C(c3ccc(C[n+]4ccc(N5CCCC5)cc4)cc3)C[C@H]12	0.6	0.8	14.9	3.5	0.04	7.5	3	7.5
0.07	C[C@@H](O)[C@H]1C(=O)N2C(C(=O)[O-])=C(c3ccc(C[n+]4cccc5ccccc54)cc3)C[C@H]12	1.5	1.2	24.3	6.1	0.07	27.9	8.6	13
0.14	C[C@@H](O)[C@H]1C(=O)N2C(C(=O)[O-])=C(c3ccc(C[n+]4ccc(N)cc4)cc3)C[C@H]12	1.1	2.3	24.3	7	0.2	29.9	11.3	16
–	CC(O)[C@H]1C(=O)N2C(C(=O)O)=C(c3ccc(CN)cc3)C[C@H]12 (some centres not stated)	1.5	3.2	9.2	3.5	0.02	5.3	11	6.5
0.02	C[C@H](O)[C@H]1C(=O)N2C(C(=O)O)=C(c3ccc(CN)cc3)C[C@H]12	–	–	–	–	–	–	–	–
0.08	C[C@@H](O)[C@H]1C(=O)N2C(C(=O)[O-])=C(c3ccc(C[n+]4cccc(C(=O)O)c4)cc3)C[C@H]12	–	–	–	–	–	–	–	–
